Laboratory results: US20020150912A1, “Reporter system for cell surface receptor-ligand binding” (priority 2000, published 2002)
Like-named read-outs stand apart in the source and are kept apart here. Values belong to the compound of their own block, whether it stands above or below them.

What was measured:
[1] = system: endogenous ATP receptors present in the HeLa cells; experiment: HF1 reporter cell luciferase assay, endogenous ATP receptors; assay type: cell-based; conditions: stimulation for 16 hours, read-out: EC50, TRE-mediated luciferase response
Experimental: FIG. 5 illustrates the response of endogenous ATP receptors present in the HeLa cells used to establish a reporter cell line, HF1, of the invention.
A. Dose-response curve following stimulation with varying concentrations of ATP for 16 hours. […] Error bars indicate± SEM.
(§1) The medium was removed and cell lysis buffer added. Plates were stored at −70° C. until further analysis.

HeLa cells = experiment: Luciferase assay of HeLa cells transiently transfected with prototypic reporter plasmids; assay type: cell-based; conditions: Homo sapiens, 10 h, 100 nM PMA, or 100 nM PMA and 10^−6 M thapsigargin, read-out: Amplification value
Experimental: (§2) Cells electroporated for transient expression were stimulated with 100 nM PMA for 10 hours. Amplification was calculated as the ratio between the relative luminescence units (RLU) of stimulated and non-stimulated cells. Results are expressed as mean values+SEM of three to four independent transfection experiments each performed in triplicate; n.d.=not determined.
as §1
(§3) The prototypic reporter plasmids (pcFUS2; pcFUS2-6xSTAT/NFκB; pcFUS3 and pGL3-12xSTAT/NFκB) were used to transfect HeLa cells transiently by electroporation. Cells were stimulated 24 h post transfection with 100 nM PMA or 100 nM PMA and 10^−6 M thapsigargin or treated as controls. After 10 h of incubation, the cells were lysed and assayed.

[2] = system: reporter plasmids in HeLa cells; experiment: HeLa cells transiently transfected with reporter plasmids, luciferase amplification; assay type: cell-based; conditions: 100 nM PMA, 10^−6 M thapsigargin where added, 10 h, ratio of RLU, stimulated to non-stimulated cells
Experimental: as §2, §1, §3

chemokine receptor, CCR5 [3] = target: T1, chemokine receptor, CCR5 (Homo sapiens, UniProt P51681); experiment: cell-based or functional assay
T1 sequence (P51681 whole entry): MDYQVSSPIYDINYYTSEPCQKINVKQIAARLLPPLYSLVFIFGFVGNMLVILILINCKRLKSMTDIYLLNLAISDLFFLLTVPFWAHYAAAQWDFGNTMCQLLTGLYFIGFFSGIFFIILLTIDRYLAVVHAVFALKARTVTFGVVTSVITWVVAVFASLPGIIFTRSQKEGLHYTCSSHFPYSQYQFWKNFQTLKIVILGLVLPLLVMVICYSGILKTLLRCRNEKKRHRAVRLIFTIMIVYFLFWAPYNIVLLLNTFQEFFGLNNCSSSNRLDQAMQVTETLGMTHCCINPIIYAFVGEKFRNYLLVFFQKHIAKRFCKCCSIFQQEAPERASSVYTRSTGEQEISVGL

chemokine receptor, CCR5 [4] = target: T1, chemokine receptor, CCR5; experiment: HF1pCCR5 reporter cell luciferase assay; assay type: cell-based; set-up: All receptor ORFs were inserted into the pIRESpuro vector (Clontech) by standard techniques; expressed in transfected cells; host or cells: HeLa-derived HF1 reporter cells (HF1pCCR5), pIRESpuro vector; conditions: CCR5 stably expressed in HF1 reporter cells; read-out: EC50 (agonist concentration giving half maximum effect)
[5] = plasmid pcFUS3 (6 × STAT/NFκB; 9 × AP-1)

Compound: Nc1ncnc2c1ncn2[C@@H]1O[C@H](COP(=O)(O)OP(=O)(O)OP(=O)(O)O)[C@@H](O)[C@H]1O [ATP]
EC50 [1]: 107 µM

Compound: CCCCCCCCCCCCCC(=O)O[C@@H]1[C@@H](C)[C@@]2(O)[C@@H](C=C(CO)C[C@]3(O)C(=O)C(C)=C[C@@H]23)[C@@H]2C(C)(C)[C@]12OC(C)=O [PMA]
fold induction at 0.1 µM (HeLa cells; plasmid pGL3-12 × STAT/NFκB): 4.16 ± 2
fold induction at 0.1 µM (HeLa cells; plasmid pcFUS2 (9 × AP-1)): 2.53 ± 2
fold induction at 0.1 µM (HeLa cells; plasmid pcFUS2-6 × STAT/NFκB): 3.78 ± 1.44
fold induction at 0.1 µM (HeLa cells; [5]): 7.37 ± 3.29
Amplification value ([2]; plasmid pGL3-12 × STAT/NFκB): 4.16 ± 2.00
Amplification value ([2]; plasmid pcFUS2 (9 × AP-1)): 2.53 ± 2.00
Amplification value ([2]; plasmid pcFUS2-6 × STAT/NFκB): 3.78 ± 1.44
Amplification value [2, 5]: 7.37 ± 3.29

EC50 (agonist concentration giving half maximum effect), luciferase reporter in HF1 cells stably expressing CCR5 (chemokine receptor, CCR5 [3]): 0.111 µM
Compound: RANTES (from UniProt P13501 24-91) (ligand)

EC50 (chemokine receptor, CCR5 [4]): 0.111 µM
Compound: RANTES: a peptide (having the sequence RANTES), agonist of the chemokine receptor CCR5
